In patent US9254291B2, “Modulators of ATP-binding cassette transporters” (VERTEX PHARMACEUTICALS INCORPORATED, priority 2011, dated 2016):

Target: T1, ΔF508-CFTR (Homo sapiens, UniProt P13569, DEL508-508)
T1 construct: expressed in transfected cells
Assay: Membrane potential optical assay for ΔF508-CFTR correction properties of compounds
Assay type: cell-based
Details: ΔF508-CFTR in NIH3T3 mouse fibroblasts; test behind Table 2 not named
Excerpt: Assays for Detecting and Measuring ΔF508-CFTR Correction Properties of Compounds
Membrane potential optical methods for assaying ΔF508-CFTR modulation properties of compounds.
The assay utilizes fluorescent voltage sensing dyes to measure changes in membrane potential using a fluorescent plate reader (e.g., FLIPR III, Molecular Devices, Inc.) as a readout for increase in functional ΔF508-CFTR in NIH 3T3 cells. The driving force for the response is the creation of a chloride ion gradient in conjunction with channel activation by a single liquid addition step after the cells have previously been treated with compounds and subsequently loaded with a voltage sensing dye.
Identification of Correction Compounds
To identify small molecules that correct the trafficking defect associated with ΔF508-CFTR; a single-addition HTS assay format was developed. […] Cells are then ready for compound exposure after adhering to the bottom of the assay plates.
The cells were incubated in serum-free medium for 16-24 hrs in tissue culture incubator at 37° C., 5% CO2, 90% humidity in the presence or absence (negative control) of test compound. […] The addition of Cl^−-free medium promoted Cl^− efflux in response to ΔF508-CFTR activation and the resulting membrane depolarization was optically monitored using voltage sensor dyes. […]

T1 sequence (P13569 with tags, fused parts or gaps DEL508-508): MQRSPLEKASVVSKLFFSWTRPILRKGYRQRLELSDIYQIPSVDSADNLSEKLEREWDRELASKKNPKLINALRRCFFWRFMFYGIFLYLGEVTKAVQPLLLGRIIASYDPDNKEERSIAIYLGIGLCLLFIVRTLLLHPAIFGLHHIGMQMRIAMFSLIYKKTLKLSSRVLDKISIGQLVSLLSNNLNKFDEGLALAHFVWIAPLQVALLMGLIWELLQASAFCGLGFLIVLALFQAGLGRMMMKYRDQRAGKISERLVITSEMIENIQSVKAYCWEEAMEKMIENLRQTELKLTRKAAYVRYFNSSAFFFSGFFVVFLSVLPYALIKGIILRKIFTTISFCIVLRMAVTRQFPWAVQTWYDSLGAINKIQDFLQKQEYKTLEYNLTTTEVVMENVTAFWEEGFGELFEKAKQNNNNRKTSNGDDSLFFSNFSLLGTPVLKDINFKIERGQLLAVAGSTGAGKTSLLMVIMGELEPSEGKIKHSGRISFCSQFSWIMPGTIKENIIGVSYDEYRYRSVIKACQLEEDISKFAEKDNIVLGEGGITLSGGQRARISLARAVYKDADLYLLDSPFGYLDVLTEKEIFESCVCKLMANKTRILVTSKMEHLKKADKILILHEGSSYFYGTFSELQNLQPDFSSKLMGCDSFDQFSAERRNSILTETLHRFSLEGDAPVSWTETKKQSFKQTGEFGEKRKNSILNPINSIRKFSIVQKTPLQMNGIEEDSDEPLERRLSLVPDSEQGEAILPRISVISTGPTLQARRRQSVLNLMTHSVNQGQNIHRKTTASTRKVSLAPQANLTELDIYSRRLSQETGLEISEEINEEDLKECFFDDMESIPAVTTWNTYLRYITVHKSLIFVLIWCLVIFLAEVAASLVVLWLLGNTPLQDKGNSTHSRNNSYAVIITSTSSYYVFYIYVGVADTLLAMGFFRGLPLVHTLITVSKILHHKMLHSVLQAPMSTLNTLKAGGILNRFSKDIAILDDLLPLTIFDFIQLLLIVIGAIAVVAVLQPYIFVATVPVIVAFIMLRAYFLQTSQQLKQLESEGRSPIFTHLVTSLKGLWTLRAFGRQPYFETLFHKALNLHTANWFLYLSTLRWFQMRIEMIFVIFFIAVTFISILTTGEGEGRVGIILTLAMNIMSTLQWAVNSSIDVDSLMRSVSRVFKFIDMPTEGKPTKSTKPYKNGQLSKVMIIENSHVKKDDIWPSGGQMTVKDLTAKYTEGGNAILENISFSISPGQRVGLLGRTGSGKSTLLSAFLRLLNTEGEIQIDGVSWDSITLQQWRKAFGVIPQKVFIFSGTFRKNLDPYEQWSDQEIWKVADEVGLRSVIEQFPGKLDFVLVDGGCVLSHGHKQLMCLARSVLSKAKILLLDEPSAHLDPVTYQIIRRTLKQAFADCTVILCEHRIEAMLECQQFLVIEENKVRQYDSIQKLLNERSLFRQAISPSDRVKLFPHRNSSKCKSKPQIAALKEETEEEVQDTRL

- EC50: < 2000 nM
Structure (SMILES): CC1(C)c2cc3cc(NC(=O)C4(c5ccc6c(c5)OC(F)(F)O6)CC4)c(F)cc3n2C[C@H](CO)OC1O (stereo partly drawn) [1-(2,2-difluorobenzo[d][1,3]dioxol-5-yl)-N-((4R)-8-fluoro-2-hydroxy-4-(hydroxymethyl)-1,1-dimethyl-1,2,4,5-tetrahydro-[1,4]oxazepino[4,5-a]indol-9-yl)cyclopropanecarboxamide]
